ChEMBL document CHEMBL4350965 (J Med Chem, 2019)

Experiments:
[1] = Stability in rat liver microsomes assessed as parent compound remaining at 1 uM measured after 30 mins in presence of NADPH generating system
[2] = Stability in human liver microsomes assessed as parent compound remaining at 1 uM measured after 30 mins in presence of NADPH generating system
[3] = target: T1, PI3K p110 beta/p85 alpha (Homo sapiens, UniProt P42338); test: Inhibition of N-terminal His6-tagged recombinant full length human p110beta/untagged recombinant full length human p85alpha expressed in baculovirus infected Sf21 insect cells at 1 uM using PIP2 as substrate measured after 80 mins by transcreener fluorescence polarization assay relative to control
T1 sequence (P27986 whole entry): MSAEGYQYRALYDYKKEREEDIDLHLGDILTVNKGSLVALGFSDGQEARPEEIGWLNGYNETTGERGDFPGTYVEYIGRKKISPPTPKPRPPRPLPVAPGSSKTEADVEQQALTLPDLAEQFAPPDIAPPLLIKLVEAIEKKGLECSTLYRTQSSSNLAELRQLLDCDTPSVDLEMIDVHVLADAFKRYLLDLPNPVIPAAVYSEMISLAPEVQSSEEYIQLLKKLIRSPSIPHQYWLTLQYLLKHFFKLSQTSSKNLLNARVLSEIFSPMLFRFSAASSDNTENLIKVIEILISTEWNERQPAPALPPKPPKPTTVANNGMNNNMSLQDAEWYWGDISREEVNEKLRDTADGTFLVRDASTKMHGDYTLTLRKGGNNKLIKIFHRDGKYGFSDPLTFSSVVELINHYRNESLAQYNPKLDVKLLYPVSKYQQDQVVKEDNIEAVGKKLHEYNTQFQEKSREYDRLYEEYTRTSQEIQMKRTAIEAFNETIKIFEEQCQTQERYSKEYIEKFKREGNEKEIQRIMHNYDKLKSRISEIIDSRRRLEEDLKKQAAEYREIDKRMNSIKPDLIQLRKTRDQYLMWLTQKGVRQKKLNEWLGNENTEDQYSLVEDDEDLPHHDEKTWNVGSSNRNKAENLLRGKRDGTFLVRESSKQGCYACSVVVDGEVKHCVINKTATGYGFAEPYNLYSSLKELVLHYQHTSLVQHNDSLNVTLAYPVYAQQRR
T1 sequence (P42338 whole entry): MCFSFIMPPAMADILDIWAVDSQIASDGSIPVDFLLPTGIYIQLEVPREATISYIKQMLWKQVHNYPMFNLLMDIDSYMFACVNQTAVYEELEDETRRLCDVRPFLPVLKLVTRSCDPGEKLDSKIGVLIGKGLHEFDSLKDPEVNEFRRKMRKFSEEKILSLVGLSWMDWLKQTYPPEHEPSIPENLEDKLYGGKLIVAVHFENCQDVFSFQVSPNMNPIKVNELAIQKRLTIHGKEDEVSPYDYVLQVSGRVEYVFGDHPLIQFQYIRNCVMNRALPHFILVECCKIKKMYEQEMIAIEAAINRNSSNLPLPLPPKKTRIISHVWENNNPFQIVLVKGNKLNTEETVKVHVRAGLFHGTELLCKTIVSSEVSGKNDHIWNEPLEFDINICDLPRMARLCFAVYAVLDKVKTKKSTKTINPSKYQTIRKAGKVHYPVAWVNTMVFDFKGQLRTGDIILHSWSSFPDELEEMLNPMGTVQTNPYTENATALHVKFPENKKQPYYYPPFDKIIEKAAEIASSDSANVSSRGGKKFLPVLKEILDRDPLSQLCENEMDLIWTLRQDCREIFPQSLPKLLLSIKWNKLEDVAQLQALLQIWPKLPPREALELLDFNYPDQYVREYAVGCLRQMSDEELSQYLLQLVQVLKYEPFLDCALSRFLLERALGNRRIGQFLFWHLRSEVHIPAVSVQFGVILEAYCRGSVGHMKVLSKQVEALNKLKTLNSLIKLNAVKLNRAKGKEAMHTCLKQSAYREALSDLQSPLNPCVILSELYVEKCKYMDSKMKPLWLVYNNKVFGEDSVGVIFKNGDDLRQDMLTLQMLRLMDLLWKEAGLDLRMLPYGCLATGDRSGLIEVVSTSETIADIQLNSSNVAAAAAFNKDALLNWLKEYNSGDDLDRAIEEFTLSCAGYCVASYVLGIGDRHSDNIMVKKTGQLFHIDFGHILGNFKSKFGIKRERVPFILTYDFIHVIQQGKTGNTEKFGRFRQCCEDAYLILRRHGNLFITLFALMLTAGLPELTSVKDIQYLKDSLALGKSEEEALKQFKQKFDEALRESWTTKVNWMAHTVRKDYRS

[4] = target: PI3-kinase p110-alpha/p85-alpha (Homo sapiens, UniProt P42336); test: Inhibition of recombinant human full-length N-terminal His-tagged PI3K p110alpha/p85alpha expressed in baculovirus expression system at 1 uM using PIP2 as substrate measured after 80 mins by transcreener fluorescence polarization assay relative to control
Chain of PI3-kinase p110-alpha/p85-alpha (P27986 whole entry, canonical isoform): as the sequence (P27986 whole entry) above
Chain of PI3-kinase p110-alpha/p85-alpha (P42336 whole entry, canonical isoform): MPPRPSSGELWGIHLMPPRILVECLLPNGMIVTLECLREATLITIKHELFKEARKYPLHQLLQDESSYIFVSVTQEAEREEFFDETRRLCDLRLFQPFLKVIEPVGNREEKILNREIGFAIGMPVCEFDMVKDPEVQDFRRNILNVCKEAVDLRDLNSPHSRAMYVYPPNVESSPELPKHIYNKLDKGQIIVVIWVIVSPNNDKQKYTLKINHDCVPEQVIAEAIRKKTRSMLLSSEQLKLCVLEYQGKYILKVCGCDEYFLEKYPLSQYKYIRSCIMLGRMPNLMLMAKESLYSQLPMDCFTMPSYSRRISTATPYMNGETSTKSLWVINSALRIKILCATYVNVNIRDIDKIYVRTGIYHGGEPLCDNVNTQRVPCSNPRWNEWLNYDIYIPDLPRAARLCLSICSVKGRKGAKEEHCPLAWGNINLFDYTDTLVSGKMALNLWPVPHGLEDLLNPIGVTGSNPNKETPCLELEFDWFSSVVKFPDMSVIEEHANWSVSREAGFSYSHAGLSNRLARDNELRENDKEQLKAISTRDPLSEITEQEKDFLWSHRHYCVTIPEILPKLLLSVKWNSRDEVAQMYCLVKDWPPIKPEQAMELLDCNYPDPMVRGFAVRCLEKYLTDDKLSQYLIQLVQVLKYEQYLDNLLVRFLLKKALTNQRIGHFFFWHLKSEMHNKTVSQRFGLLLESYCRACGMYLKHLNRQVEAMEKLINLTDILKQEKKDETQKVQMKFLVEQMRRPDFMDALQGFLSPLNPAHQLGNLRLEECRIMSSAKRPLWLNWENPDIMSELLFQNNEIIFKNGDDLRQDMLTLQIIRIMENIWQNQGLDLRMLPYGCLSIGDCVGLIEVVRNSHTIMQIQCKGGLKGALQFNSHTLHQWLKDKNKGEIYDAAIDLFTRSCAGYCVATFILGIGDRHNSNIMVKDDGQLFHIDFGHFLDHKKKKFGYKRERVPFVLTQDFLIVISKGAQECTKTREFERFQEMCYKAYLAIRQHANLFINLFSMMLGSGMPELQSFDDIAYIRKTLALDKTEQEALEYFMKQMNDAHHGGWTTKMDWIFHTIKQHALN

[5] = target: T2, Phosphatidylinositol 4,5-bisphosphate 3-kinase catalytic subunit delta isoform (Homo sapiens, UniProt O00329); test: Inhibition of PI3Kdelta in human Ramos cells assessed as reduction in antihuman IgM-stimulated AKT phosphorylation at Ser473 residue preincubated for 60 mins followed by antihuman IgM stimulation and measured after 15 mins; format: cell-based
T2 sequence (O00329 whole entry): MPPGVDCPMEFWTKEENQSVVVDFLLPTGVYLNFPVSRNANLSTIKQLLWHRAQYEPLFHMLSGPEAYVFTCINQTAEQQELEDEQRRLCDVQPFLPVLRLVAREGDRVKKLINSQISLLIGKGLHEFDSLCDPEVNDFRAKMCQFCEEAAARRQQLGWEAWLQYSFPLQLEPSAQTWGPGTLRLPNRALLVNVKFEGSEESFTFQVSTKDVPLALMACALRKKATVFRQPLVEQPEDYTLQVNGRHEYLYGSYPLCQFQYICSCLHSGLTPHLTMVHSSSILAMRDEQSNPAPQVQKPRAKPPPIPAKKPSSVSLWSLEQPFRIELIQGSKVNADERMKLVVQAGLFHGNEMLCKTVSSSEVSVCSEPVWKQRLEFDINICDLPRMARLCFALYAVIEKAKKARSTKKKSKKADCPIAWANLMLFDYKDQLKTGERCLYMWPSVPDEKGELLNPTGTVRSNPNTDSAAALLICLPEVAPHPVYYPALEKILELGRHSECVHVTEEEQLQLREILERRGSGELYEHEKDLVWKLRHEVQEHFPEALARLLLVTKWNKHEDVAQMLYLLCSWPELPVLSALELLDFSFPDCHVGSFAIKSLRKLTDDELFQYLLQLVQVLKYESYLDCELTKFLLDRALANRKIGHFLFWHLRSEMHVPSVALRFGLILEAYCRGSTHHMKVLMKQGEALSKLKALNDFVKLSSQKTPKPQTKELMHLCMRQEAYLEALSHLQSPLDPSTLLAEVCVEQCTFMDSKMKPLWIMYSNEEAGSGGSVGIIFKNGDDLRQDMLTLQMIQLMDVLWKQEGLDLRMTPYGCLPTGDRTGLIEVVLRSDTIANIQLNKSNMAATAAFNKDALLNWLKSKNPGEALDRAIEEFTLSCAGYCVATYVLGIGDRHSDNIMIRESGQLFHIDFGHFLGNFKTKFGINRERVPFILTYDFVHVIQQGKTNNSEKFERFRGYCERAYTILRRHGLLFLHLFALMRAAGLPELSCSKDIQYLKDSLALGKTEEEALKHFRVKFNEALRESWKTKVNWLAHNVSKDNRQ

[6] = target: T1, PI3K p110 beta/p85 alpha; test: Inhibition of N-terminal His6-tagged recombinant full length human p110beta/untagged recombinant full length human p85alpha expressed in baculovirus infected Sf21 insect cells using PIP2 as substrate measured after 80 mins by transcreener fluorescence polarization assay
[7] = Inhibition of PI3Kgamma in […] RAW264.7 cells assessed as reduction in C5a-stimulated AKT phosphorylation at Ser473 residue preincubated for 30 mins followed by C5a-stimulation and measured after 5 mins; format: cell-based
[8] = target: PI3-kinase p110-delta/p85-alpha (Homo sapiens, UniProt O00329); test: biochemical
Chain of PI3-kinase p110-delta/p85-alpha (P27986 whole entry, one chain of several, canonical isoform): as the sequence (P27986 whole entry) above
Description: Inhibition of N-terminal His6-tagged recombinant full length human p110delta/untagged recombinant full length human p85alpha expressed in baculovirus infected Sf21 insect cells using PIP2 as substrate measured after 80 mins by transcreener fluorescence polarization assay

[9] = target: Phosphatidylinositol 4,5-bisphosphate 3-kinase catalytic subunit gamma isoform (Homo sapiens, UniProt P48736)
Chain of Phosphatidylinositol 4,5-bisphosphate 3-kinase catalytic subunit gamma isoform (P48736 whole entry, canonical isoform): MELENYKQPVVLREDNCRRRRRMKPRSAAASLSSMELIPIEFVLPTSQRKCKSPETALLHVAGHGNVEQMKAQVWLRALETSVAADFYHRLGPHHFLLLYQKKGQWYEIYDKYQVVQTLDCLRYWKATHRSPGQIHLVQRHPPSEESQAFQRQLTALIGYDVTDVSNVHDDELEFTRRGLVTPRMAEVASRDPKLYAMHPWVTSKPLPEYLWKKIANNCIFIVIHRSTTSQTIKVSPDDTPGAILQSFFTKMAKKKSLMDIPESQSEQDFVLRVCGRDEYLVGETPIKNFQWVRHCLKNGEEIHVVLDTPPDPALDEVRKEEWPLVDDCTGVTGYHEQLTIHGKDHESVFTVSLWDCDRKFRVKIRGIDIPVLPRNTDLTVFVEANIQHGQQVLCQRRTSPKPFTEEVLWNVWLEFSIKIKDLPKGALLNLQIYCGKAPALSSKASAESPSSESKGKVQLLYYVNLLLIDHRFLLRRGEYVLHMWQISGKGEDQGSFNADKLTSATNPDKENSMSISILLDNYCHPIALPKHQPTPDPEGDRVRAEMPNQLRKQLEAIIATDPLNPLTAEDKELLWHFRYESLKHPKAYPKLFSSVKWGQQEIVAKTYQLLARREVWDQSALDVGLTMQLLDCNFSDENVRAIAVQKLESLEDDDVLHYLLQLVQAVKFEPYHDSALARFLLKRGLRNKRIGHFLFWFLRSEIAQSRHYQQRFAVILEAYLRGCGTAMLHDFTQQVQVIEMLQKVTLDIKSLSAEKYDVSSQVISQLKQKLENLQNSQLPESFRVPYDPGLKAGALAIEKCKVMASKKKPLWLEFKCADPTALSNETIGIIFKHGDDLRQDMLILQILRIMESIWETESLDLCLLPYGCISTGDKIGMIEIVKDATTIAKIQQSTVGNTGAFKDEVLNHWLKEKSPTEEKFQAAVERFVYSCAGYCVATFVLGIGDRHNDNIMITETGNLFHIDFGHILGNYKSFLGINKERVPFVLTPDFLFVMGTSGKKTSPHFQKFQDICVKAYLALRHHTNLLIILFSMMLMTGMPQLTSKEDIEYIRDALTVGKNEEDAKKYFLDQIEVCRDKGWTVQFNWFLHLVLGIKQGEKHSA
Description: Inhibition of recombinant human full-length His-tagged PI3K p110gamma expressed in baculovirus expression system using PIP2 as substrate measured after 80 mins by transcreener fluorescence polarization assay

[10] = AUC in Sprague-Dawley rat at 2.5 mg/kg, iv by LC-MS/MS analysis; format: ADME, organism-based; conditions: in vivo
[11] = Oral bioavailability in Sprague-Dawley rat at 10 mg/kg by LC-MS/MS analysis; format: ADME, organism-based; conditions: in vivo
[12] = Clearance in Beagle dog at 1 mg/kg, iv by LC-MS/MS analysis; format: ADME, organism-based, Canis lupus familiaris; conditions: in vivo
[13] = Half life in Beagle dog at 1 mg/kg, iv by LC-MS/MS analysis; format: ADME, organism-based, Canis lupus familiaris; conditions: in vivo
[14] = AUC in Beagle dog at 5 mg/kg, po by LC-MS/MS analysis; format: ADME, organism-based, Canis lupus familiaris; conditions: in vivo
[15] = AUC in Beagle dog at 1 mg/kg, iv by LC-MS/MS analysis; format: ADME, organism-based, Canis lupus familiaris; conditions: in vivo
[16] = target: T2, Phosphatidylinositol 4,5-bisphosphate 3-kinase catalytic subunit delta isoform; test: Inhibition of PI3Kdelta in human whole blood assessed as reduction in fMLP-stimulated CD63 expression in basophils preincubated for 30 mins followed by fMLP stimulation; format: tissue-based
[17] = Cmax in Sprague-Dawley rat at 10 mg/kg, po by LC-MS/MS analysis; format: ADME, organism-based; design: dose 10 mg/kg, route oral; conditions: in vivo
[18] = tested on: Rattus norvegicus; test: Antiarthritic activity in po dosed type2 collagen-induced Wistar rat arthritis model assessed as reduction in hind paw volume administered twice daily for 7 days and measured daily during compound dosing by plethysmometry; format: functional; conditions: 168 h
[19] = tested on: Rattus norvegicus; test: Inhibition of KC/GRO-induced neutrophil migration in Wistar rat air pouch model at 10 mg/kg, po pretreated for 0.5 hrs followed by KC/GRO-stimulation and measured after 4 hrs by flow cytometry relative to control; format: functional
[20] = Oral bioavailability in Beagle dog at 5 mg/kg by LC-MS/MS analysis; format: ADME, organism-based, Canis lupus familiaris; conditions: in vivo
[21] = Half life in Sprague-Dawley rat at 2.5 mg/kg, iv by LC-MS/MS analysis; format: ADME, organism-based; conditions: in vivo
[22] = Inhibition of PI3Kdelta in rat whole blood assessed as reduction in anti-IgD-stimulated CD86 expression on B-cells preincubated for 60 mins followed by anti-IgD stimulation and measured after overnight incubation by flow cytometry; format: tissue-based
[23] = tested on: Rattus norvegicus; test: Ex vivo inhibition of anti-IgD-induced B cell activation in Wistar rat assessed as CD86 expression at 1 mg/kg, po pretreated for 2 hrs followed by anti-IgD stimulation and measured after overnight incubation by flow cytometry relative to control; format: functional
[24] = target: T2, Phosphatidylinositol 4,5-bisphosphate 3-kinase catalytic subunit delta isoform; test: Inhibition of PI3Kdelta in human whole blood assessed as reduction in anti-IgM-stimulated CD69 expression on B-cells preincubated for 60 mins followed by anti-IgM stimulation and measured after overnight incubation by flow cytometry; format: tissue-based
[25] = Clearance in Sprague-Dawley rat at 2.5 mg/kg, iv by LC-MS/MS analysis; format: ADME, organism-based; conditions: in vivo
[26] = AUC in Sprague-Dawley rat at 10 mg/kg, po by LC-MS/MS analysis; format: ADME, organism-based; conditions: in vivo
[27] = Volume of distribution at steady state in Beagle dog at 1 mg/kg, iv by LC-MS/MS analysis; format: ADME, organism-based, Canis lupus familiaris; conditions: in vivo, read-out: Vdss
[28] = Cmax in Beagle dog at 5 mg/kg, po by LC-MS/MS analysis; format: ADME, organism-based, Canis lupus familiaris; design: dose 5 mg/kg, route oral; conditions: in vivo

## O=c1c2c(Cl)ccn2nc([C@@H]2CCCN2c2ncnc3[nH]cnc23)n1-c1ccccc1
[1]
  remaining at 0.5 h, 1 µM: 38.8%
[2]
  remaining at 0.5 h, 1 µM: 72.6%

## O=c1c2c(Cl)ccn2nc([C@@H]2CCN2c2ncnc3[nH]cnc23)n1-c1ccccc1
[1]
  remaining at 0.5 h, 1 µM: 78.5%
[3]
  inhibition at 1 µM: 18.5%
[4]
  inhibition at 1 µM: -1.5%
[2]
  remaining at 0.5 h, 1 µM: 95.4%

## O=c1c2cccn2nc([C@@H]2CCCN2c2ncnc3[nH]cnc23)n1-c1ccccc1
[1]
  remaining at 0.5 h, 1 µM: 44.3%
[3]
  inhibition at 1 µM: 17.4%

## N#Cc1c[nH]c2ncnc(N3CC[C@H]3c3nn4ccc(Cl)c4c(=O)n3-c3ccccc3)c12
[5]
  IC50: 21 nM
[1]
  remaining at 0.5 h, 1 µM: 63.9%
[6]
  IC50: 945 nM
[4]
  inhibition at 1 µM: -0.3%
[7]
  IC50: 152 nM
[2]
  remaining at 0.5 h, 1 µM: 89.8%
[8]
  IC50: 13 nM
[9]
  IC50: 34 nM

## CC(=O)c1c[nH]c2ncnc(N3CCC[C@H]3c3nn4ccc(Cl)c4c(=O)n3-c3ccccc3)c12
[1]
  remaining at 0.5 h, 1 µM: 41.4%
[2]
  remaining at 0.5 h, 1 µM: 17.9%

## O=c1c2c(F)ccn2nc([C@@H]2CCCN2c2ncnc3[nH]cnc23)n1-c1ccccc1
[1]
  remaining at 0.5 h, 1 µM: 51.8%
[3]
  inhibition at 1 µM: 52.9%

## CC(=O)c1c[nH]c2ncnc(N3CCC[C@H]3c3nn4ccc(F)c4c(=O)n3-c3ccccc3)c12
[5]
  IC50: 5 nM
[1]
  remaining at 0.5 h, 1 µM: 26.1%
[7]
  IC50: 42 nM
[2]
  remaining at 0.5 h, 1 µM: 25.1%

## N#Cc1cnc(N)nc1N1CC[C@H]1c1nn2ccc(Cl)c2c(=O)n1-c1ccccc1
[5]
  IC50: 16 nM
[1]
  remaining at 0.5 h, 1 µM: 77.5%
[3]
  inhibition at 1 µM: 37%
[4]
  inhibition at 1 µM: < 50%
[7]
  IC50: 241 nM
[2]
  remaining at 0.5 h, 1 µM: 71.2%

## CC(=O)c1c[nH]c2ncnc(N3CC[C@H]3c3nn4ccc(Cl)c4c(=O)n3-c3ccccc3)c12
[5]
  IC50: 21 nM
[1]
  remaining at 0.5 h, 1 µM: 77.2%
[3]
  inhibition at 1 µM: 45.9%
[4]
  inhibition at 1 µM: 8.4%
[7]
  IC50: 142 nM
[2]
  remaining at 0.5 h, 1 µM: 83%

## CC(=O)c1cnc(N)nc1N1CC[C@H]1c1nn2ccc(Cl)c2c(=O)n1-c1ccccc1
[10]
  AUC: 3270 ng·h/mL
[11]
  bioavailability: 108%
[6]
  IC50: 590 nM
[12]
  clearance: 5.4 mL/min/kg
[13]
  half-life: 6.3 h
[14]
  AUC: 13100 ng·h/mL
[15]
  AUC: 3260 ng·h/mL
[16]
  IC50: 337 nM
[17]
  Cmax: 2730 ng/mL
[18]
  ED50: 0.25 mg/kg
[8]
  IC50: 5 nM
[19]
  inhibition in vivo at 10 mg/kg: 87.9%
[20]
  bioavailability: 82.4%
[21]
  half-life: 1.5 h
[22]
  IC50: 44 nM
[23]
  inhibition in vivo at 1 mg/kg: 88.3%
[24]
  IC50: 63 nM
[25]
  clearance: 12.7 mL/min/kg
[26]
  AUC: 14300 ng·h/mL
[27]
  Vd: 1.7 L/kg
[28]
  Cmax: 2530 ng/mL

## N#Cc1c[nH]c2ncnc(N3CCC[C@H]3c3nn4ccc(Cl)c4c(=O)n3-c3ccccc3)c12
[1]
  remaining at 0.5 h, 1 µM: 38.7%
